# Source: ChEMBL document CHEMBL1122447, “2-Acetylpyridine thiosemicarbazones. 5. 1-[1-(2-Pyridyl)ethyl]-3-thiosemicarbazides as potential antimalarial agents” (1983)
# Legend:
# Plasmodium berghei [1] = experiment: Increased mean survival time in drug-sensitive Plasmodium berghei infected mice (Mus musculus) at 320 mg/kg; cured 2 of 5; assay type: functional, organism-based; parameters: dose 320 mg/kg
# Plasmodium berghei [2] = experiment: Increased mean survival time in drug-sensitive Plasmodium berghei infected mice (Mus musculus) at 80 mg/kg; cures 3 of 5; assay type: functional, organism-based; parameters: dose 80 mg/kg
# Plasmodium berghei [3] = experiment: Increased mean survival time in drug-sensitive Plasmodium berghei infected mice (Mus musculus) at 160 mg/kg; cured 5 of 5; assay type: functional
# Plasmodium berghei [4] = experiment: Increased mean survival time in drug-sensitive Plasmodium berghei infected mice (Mus musculus) at 40 mg/kg; cured 1 of 5; assay type: functional, organism-based; parameters: dose 40 mg/kg
# Plasmodium berghei [5] = experiment: Antimalarial activity against Plasmodium berghei infected mice (Mus musculus) at 320 mg/kg; toxic in 1 of 5; assay type: functional, organism-based; parameters: dose 320 mg/kg
# Plasmodium berghei [6] = experiment: Antimalarial activity against Plasmodium berghei infected mice (Mus musculus) at 640 mg/kg; toxic in 5 of 5; assay type: functional, organism-based; parameters: dose 640 mg/kg
# Plasmodium berghei [7] = experiment: Increased mean survival time in drug-sensitive Plasmodium berghei infected mice (Mus musculus) at 20 mg/kg dose; assay type: functional
smiles,measurement,setting,value
CC(N/N=C(\S)N1CCN(c2ccccn2)CC1)c1ccccn1 (configuration not stated),Survival time,Plasmodium berghei [1],Cured 2 of 5 mice
same,Survival time,Plasmodium berghei [2],Cured 3 of 5 mice
same,Survival time,Plasmodium berghei [3],5 days
same,Survival time,Plasmodium berghei [4],Cured 1 of 5 mice
same,Survival time,Plasmodium berghei [5],Toxic in 1 of 5 mice
same,Survival time,Plasmodium berghei [6],Toxic in 5 of 5 mice
same,Survival time,Plasmodium berghei [7],0.4 days
